The numbers were not newly measured in publication PMC12525602, “Identification of Selective α-Glucosidase Inhibitors via Virtual Screening with Machine Learning” (Molecules, 2025), which cites them from elsewhere.

The first series has as its system α-glucosidase. The conditions noted are these: activity label in the 300-compound modeling dataset (Table S5); 1 = active, 0 = inactive; cited from earlier work.
In the case of `COc1ccc([C@@H]2CC(=O)c3c(O)cc(O[C@@H]4O[C@H](CO[C@@H]5O[C@@H](C)[C@H](O)[C@@H](O)[C@H]5O)[C@@H](O)[C@H](O)[C@H]4O)cc3O2)cc1O` [compound 185], the activity was 1.

Take `Cc1ccc(-c2csc(N/N=C/c3ccc(N4CCC(C)CC4)cc3)n2)cc1` [compound 186]: the activity was 1.

`COc1cccc(C(=O)C2C(O)c3ccccc3S(=O)(=O)N2CC(=O)Nc2ccccc2Br)c1` (centres unmarked) [compound 187]: the activity is recorded as 1.

In the case of `CCCCCCCCCCCCCCCC(N)=O` [compound 188], the activity is reported as 1.

Turning to `COc1ccc(Br)cc1-c1nnc(/N=C(/CSc2nnc3c(n2)[nH]c2ccccc23)c2ccc(C)cc2)s1` [compound 189], the activity is 1.

As for `Nc1ccc(CCC(=O)N2CC[C@@H](O)[C@@H](O)C2)cc1` [compound 190], the activity is 1.

Take `O=C(NNS(=O)(=O)c1ccc(Cl)cc1)c1cc2cc(F)ccc2[nH]1` [compound 191]: the activity is listed as 1.

As to `O=C(CCc1ccc(O)cc1)c1c(O)cc(O)cc1O[C@@H]1O[C@H](CO)[C@@H](O)[C@H](O)[C@H]1O` [compound 192], the activity is 1.

For `N#Cc1ccc2[nH]c(-c3nnc(Nc4ccc(Cl)c(Cl)c4)s3)cc2c1` [compound 193], the activity is 1.

As for `CC1CCN(c2ccc(/C=N/Nc3nc(-c4ccc(O)cc4)cs3)cc2)CC1` [compound 194], the activity is listed as 1.

For the compound `O=C(O)/C=C/c1ccc(O)cc1` [compound 195], the activity is listed as 1.

With `COc1cccc(C(=O)C2C(O)c3ccccc3S(=O)(=O)N2CC(=O)Nc2cccc(C)c2)c1` (centres unmarked) [compound 196], the activity was 1.

`Cc1ccc(-c2cc(C(F)(F)F)nn2-c2ccc(S(=O)(=O)NC(=O)c3ccccc3)cc2)cc1` [compound 197]: the activity is listed as 1.

For the compound `COc1ccc(OC)c(/C(CSc2nnc3c(n2)[nH]c2ccccc23)=N\c2nnc(-c3cc(Br)ccc3OC)s2)c1` [compound 198], the activity is 1.

Consider `COc1ccc(Br)cc1-c1nnc(/N=C(/CSc2nnc3c(n2)[nH]c2ccccc23)c2ccccc2[N+](=O)[O-])s1` [compound 199], for which the activity is recorded as 1.

Regarding `Cc1ccc(-c2cc(C(F)(F)F)nn2-c2ccc(S(=O)(=O)NC(=O)c3cccc([N+](=O)[O-])c3)cc2)cc1` [compound 200], the activity was 1.

For the compound `Cc1ccc(-c2cc(C(F)(F)F)nn2-c2ccc(S(=O)(=O)NC(=O)c3ccccc3[N+](=O)[O-])cc2)cc1` [compound 201], the activity is on record as 1.

For the compound `COc1cccc(C(=O)C2C(O)c3ccccc3S(=O)(=O)N2CC(=O)Nc2ccc(Br)cc2)c1` (centres unmarked) [compound 202], the activity was 1.

For the compound `Oc1cccc(-c2cc3cccc(Cl)c3o2)c1` [compound 203], the activity is 1.

For the compound `COc1cc(/C=C/C(=O)O)cc(-c2cc(/C=C/C(=O)O)cc(OC)c2O)c1O` [compound 205], the activity is recorded as 1.

In the case of `O=C(NNS(=O)(=O)c1ccc(F)cc1)c1cc2cc(F)ccc2[nH]1` [compound 207], the activity is given as 1.

For the compound `Cc1ccc(-c2cc(C(F)(F)F)nn2-c2ccc(S(=O)(=O)NC(=O)c3ccc(Br)cc3)cc2)cc1` [compound 208], the activity was 1.

For `Oc1cccc(-c2cc3cccc(Br)c3o2)c1` [compound 209], the activity was 1.

Regarding `COc1cc(/C=C/C(=O)O)ccc1O/C(=C\c1cc(OC)c(O)c(-c2cc(/C=C/C(=O)O)cc(OC)c2O)c1)C(=O)O` [compound 210], the activity is listed as 1.

In the case of `O=C1CC(c2ccc(O)cc2)Oc2cc(O)cc(O)c21` (centres unmarked) [compound 211], the activity is 1.

As to `Oc1cc(O)cc(-c2cc3cccc(Cl)c3o2)c1` [compound 212], the activity is given as 1.

`COc1ccc(/C(CSc2nnc3c(n2)[nH]c2ccccc23)=N\c2nnc(-c3ccccc3[N+](=O)[O-])s2)cc1` [compound 213]: the activity was 1.

Consider `O=C(COc1c(I)cc(Cl)c2cccnc12)c1ccccc1` [compound 214], for which the activity is listed as 1.

Regarding `CC(C)(C)c1ccc(-c2csc(N/N=C/c3ccccc3OCc3cc4ccccc4oc3=O)n2)cc1` [compound 215], the activity is given as 1.

Consider `COc1ccc(/C(CSc2nnc3c(n2)[nH]c2ccccc23)=N\c2nnc(-c3ccc([N+](=O)[O-])cc3)s2)cc1` [compound 217], for which the activity is 1.

For `O=c1c(O)c(-c2ccc(O)cc2)oc2c(O)c(O)cc(O)c12` [compound 219], the activity is on record as 1.

Turning to `C=C(C)[C@@H]1CCC2=Cc3nc(NC(=O)c4ccc(Cl)cc4)sc3[C@@H](C)[C@]2(C)C1` [compound 220], the activity was 1.

As for `Oc1c(Cl)cc(Cl)cc1-c1nnc(/N=C(/CSc2nnc3c(n2)[nH]c2ccccc23)c2ccc(-c3ccccc3)cc2)s1` [compound 221], the activity was 1.

In the case of `O=[N+]([O-])c1ccccc1-c1nnc(/N=C(/CSc2nnc3c(n2)[nH]c2ccccc23)c2ccc(-c3ccccc3)cc2)s1` [compound 223], the activity is given as 1.

Consider `COc1cc(/C=N/N=C2\C(=O)Nc3ccccc32)ccc1OCc1cn(Cc2ccccc2)nn1` [compound 224], for which the activity is listed as 1.

Consider `O=C(CCc1ccc(NS(=O)(=O)c2ccc(C(F)(F)F)cc2)cc1)N1CC[C@H](O)[C@H](O)C1` [compound 225], for which the activity is 1.

Take `O=C(NNS(=O)(=O)c1ccccc1F)c1cc2cc(F)ccc2[nH]1` [compound 226]: the activity is 1.

Turning to `Fc1ccc(CNc2cccc(-c3nc4ccccc4[nH]3)c2)cc1` [compound 227], the activity was 1.

The same series, now with this note: activity label of the modeling dataset, Table S5; cited from earlier work.
`O=C(NNS(=O)(=O)c1ccc(C(F)(F)F)cc1)c1cc2cc(F)ccc2[nH]1` [compound 150]: the activity is on record as 1.

As to `COc1cc(Br)ccc1-c1nnc(/N=C(/CSc2nnc3c(n2)[nH]c2ccccc23)c2ccc(Br)cc2Br)s1` [compound 151], the activity is recorded as 1.

In the case of `Brc1cc(-c2ccccc2)ccc1/C(CSc1nnc2c(n1)[nH]c1ccccc12)=N\c1nnc(-c2ccc3ccccc3c2)s1` [compound 152], the activity was 1.

For the compound `O=[N+]([O-])c1ccccc1-c1nnc(/N=C(/CSc2nnc3c(n2)[nH]c2ccccc23)c2ccc(Br)cc2Br)s1` [compound 153], the activity is 1.

In the case of `N#Cc1ccc2[nH]c(-c3nnc(Nc4cccc([N+](=O)[O-])c4)s3)cc2c1` [compound 154], the activity is 1.

Regarding `O=C(CCc1ccc(O)cc1)c1c(O)cc(O[C@@H]2O[C@H](CO)[C@@H](O)[C@H](O)[C@H]2O)cc1O` [compound 155], the activity is listed as 1.

With `COc1cc(/C=C(\Oc2ccc(/C=C/C(=O)O)cc2OC)C(=O)O)ccc1O` [compound 157], the activity is listed as 1.

As to `O=c1c(O[C@@H]2O[C@H](CO)[C@@H](O)[C@H](O)[C@H]2O)c(-c2ccc(O)c(O)c2)oc2cc(O)cc(O)c12` [compound 159], the activity was 1.

For the compound `O=C(O)CCCCCCCCCCCCCCCO` [compound 160], the activity is on record as 1.

In the case of `COc1cc(-c2oc3cc(O)cc(O)c3c(=O)c2O)ccc1O` [compound 161], the activity was 1.

For the compound `CC(C)=CCC1=C(O)C(CC=C(C)C)(CC=C(C)C)C(=O)C(C(=O)CC(C)C)=C1O` [compound 163], the activity is listed as 1.

On to `COc1ccc(Br)cc1-c1nnc(/N=C(/CSc2nnc3c(n2)[nH]c2ccccc23)c2cccc([N+](=O)[O-])c2)s1` [compound 164], for which the activity is listed as 1.

For `COc1ccc(Br)cc1-c1nnc(/N=C(/CSc2nnc3c(n2)[nH]c2ccccc23)c2ccc(-c3ccccc3)cc2)s1` [compound 165], the activity is given as 1.

On to `COc1cc(/C=C(\C(=O)O)c2cc(/C=C/C(=O)O)cc(OC)c2O)ccc1O` [compound 166], for which the activity was 1.

Regarding `COc1cc(O)c(CC=C(C)C)c(O)c1C(=O)/C=C/c1ccc(O)cc1` [compound 167], the activity is recorded as 1.

As to `COc1cccc(C(=O)C2C(O)c3ccccc3S(=O)(=O)N2CC(=O)Nc2ccccc2Cl)c1` (centres unmarked) [compound 168], the activity was 1.

With `CC(C)=CCc1c(O)cc2c(c1O)C(=O)CC(c1ccc(O)cc1)O2` (centres unmarked) [compound 169], the activity is 1.

Regarding `N#Cc1ccc2[nH]c(-c3nnc(Nc4ccc(F)cc4)s3)cc2c1` [compound 170], the activity is 1.

Regarding `O=[N+]([O-])c1ccccc1-c1nnc(/N=C(/CSc2nnc3c(n2)[nH]c2ccccc23)c2cccc([N+](=O)[O-])c2Br)s1` [compound 171], the activity is 1.

Regarding `COc1ccc(/C(CSc2nnc3c(n2)[nH]c2ccccc23)=N\c2nnc(-c3cc(Br)ccc3OC)s2)cc1` [compound 173], the activity is 1.

In the case of `CC(C)C1=CC2=CC[C@@H]3[C@](C)(CCC[C@@]3(C)C(=O)O)[C@H]2CC1` [compound 174], the activity is reported as 1.

On to `C[C@@H]1O[C@@H](Oc2c(-c3ccc(O)c(O)c3)oc3cc(O)cc(O)c3c2=O)[C@H](O)[C@H](O)[C@H]1O` [compound 175], for which the activity is 1.

With `O=C(CCc1ccc(O)cc1)c1c(O)cc(O)cc1O` [compound 176], the activity was 1.

Take `COc1cccc(C(=O)C2=C(O)c3ccccc3S(=O)(=O)C2CC(=O)Nc2ccc(Cl)cc2)c1` (centres unmarked) [compound 177]: the activity is given as 1.

Regarding `COc1cccc(C(=O)C2C(O)c3ccccc3S(=O)(=O)N2CC(=O)Nc2ccc(Cl)cc2)c1` (centres unmarked) [compound 178], the activity is on record as 1.

For the compound `COc1cc(O)c(CC=C(C)C)c2c1C(=O)CC(c1ccc(O)cc1)O2` (centres unmarked) [compound 179], the activity is listed as 1.

For `O=[N+]([O-])c1cccc(/C(CSc2nnc3c(n2)[nH]c2ccccc23)=N\c2nnc(-c3cc(Cl)cc(Cl)c3O)s2)c1` [compound 180], the activity is reported as 1.

With `O=C(NNS(=O)(=O)c1ccc(Br)cc1)c1cc2cc(F)ccc2[nH]1` [compound 182], the activity is on record as 1.

`COc1cc(/C=C/C(=O)O)ccc1O` [compound 183]: the activity was 1.

For the compound `N#Cc1ccc2[nH]c(-c3nnc(Nc4ccccc4F)s3)cc2c1` [compound 184], the activity is recorded as 1.
